Key:
[1] = system: PGK1; assay: Western blot of PGK1 expression in treated A549 cells; format: cell-based, human; details: A549, 25 µM, 24 h, normalized to GAPDH
Experimental: To confirm the 2D-gel analysis results, HSPA1A and PGK1 were selected for the validation by Western blot. The same three experimental conditions were established, namely A549 cells treated with vehicle (0.025% DMSO), 25 μM andrographolide or 25 μM ZAD-1. Glyceraldehyde-3-phosphate dehydrogenase (GAPDH) was used as a loading control and the proteins were normalized to this protein. […] While the difference in HSPA1A expression between andrographolide treatment and ZAD-1 treatment is consistent with the spot intensity data (Table 3), the spot density for the control DMSO treatment is not consistent with the western blot result.
A total of 40 µg of proteins were separated by electrophoresis through a 12% sodium dodecyl sulfate (SDS) polyacrylamide gel and transferred to a nitrocellulose membrane by electroblotting. The membranes were blocked with 5% skim milk in TBS-T (20 mM Tris, 140 mM NaCl and 0.1% Tween-20) at room temperature for 1 h with shaking. […] The signal of specific protein bands was detected using the Luminata Forte Western HRP Substrate (Millipore Corp., Burlington, MA, USA) and recorded by film autoradiography. […]

[2] = system: Ran; assay: 2D-PAGE proteomic analysis of treated A549 cells, Ran spot; format: cell-based, human; details: A549, 25 µM, 24 h
Experimental: (§1) A549 cells were therefore treated with either vehicle (0.025% DMSO), or with 25 μM of andrographolide or ZAD-1, and at 24 h post-treatment, proteins were prepared and subjected to two-dimension polyacrylamide gel electrophoresis (2D-PAGE). The experiment was undertaken independently in triplicate and representative gels are shown Figure 5, with all replicates being shown in Supplementary Figure S12. […] All of these protein spots were cut from the gels and then subjected to in-gel tryptic digestion followed by mass spectrometry. MASCOT (Matrix Science Inc., Boston, MA, USA) search of the resultant masses identified 4 proteins (Table 3), namely heat shock protein 70 kDa 1A (HSPA1A), phosphoglycerate kinase 1 (PGK1), transketolase (TKT) and nuclear transport protein of GTP-binding nuclear protein Ran (Ran).
(§2) 2D-PAGE and mass spectroscopic identification of differentially expressed spots was undertaken essentially as previously described. […] Image data were analyzed using Image Master™ 2D Platinum software version 7.0 (GenBio, Geneva, Switzerland). Each spot was evaluated on intensity, volume and area. […] After tryptic in-gel digestion, peptide masses were determined by LC-MS/MS using SYNAPT high definition MS (HDMS) (Waters Corp., Milford, MA, USA).

[3] = system: TKT; assay: 2D-PAGE proteomic analysis of treated A549 cells, TKT spot; format: cell-based, human; details: A549, 25 µM, 24 h
Experimental: as §1, §2

[4] = MTT cytotoxicity assay in HEK293T/17 cells; format: cell-based; details: human, HEK293T/17 cells (human embryonic kidney), 24 h post-treatment
Experimental: (§3) Cytotoxicity of each compound towards cells for four selected cell lines in the range of 1 to 500 µM was evaluated using the MTT (3-(4,5-dimethylthiazol-2-yl)-2,5-diphenyltetrazolium bromide) assay at 24 h post-treatment, in parallel with control and vehicle-treated cells (0.1% dimethyl sulfoxide (DMSO)). The 50% cytotoxic concentration (CC50) values calculated from the dose-response curve (Supplementary Figures S2–S5) are shown in Table 1. Overall, a range of cytotoxicities were seen from the four compounds across the […]. The most cytotoxic combination was ZAD-1 and BHK-21 cells, while the least cytotoxic combination was andrographolide and BHK-21 cells (Table 1).
(§4) A549 cells were cultured in ninety-six-well tissue culture plates under standard conditions until the cells reached 90% confluence. The cell culture medium was removed and then cells were incubated with various concentrations of andrographolide (1–100 μM) diluted in complete medium with FBS prior to being cultured for 24 h under standard conditions before analysis using either the Vybrant MTT Cell proliferation assay kit (V13154, Invitrogen) or the alamarBlue (Thermo Fischer Scientific, Waltham, MA, USA) assay kit according to the manufacturers recommendations. Values were determined from 8 (MTT assay) or 3 (alamarBlue) independent replicates. Negative controls (only media and media with 0.1% DMSO) and positive controls (5% DMSO) were included. To determine cell number, cell cultures were trypsinized by the addition of 0.25% Trypsin/0.1% ethylelediaminetetraacetic acid (EDTA) for 3 min and then cell suspensions were diluted with 0.4% trypan blue solution. Cells were counted using a hemocytometer. Cell morphology was additionally observed under an inverted microscope after 24 h treatment with various concentrations of each compound.
Figu re S5. Cytotoxicity of ZAD -1 (A), ZA D-2 (B), ZA D-3 (C), and andro grapholide (D) to HEK293T/17 (human embryonic kidney) cells.
HEK293T/17 cells were incubated with various concentrations of each compound for 24 hrs followed by MTT cell viability assay. The experiment was undertaken independently in 4 replicates. DMSO at the same concentrations was used as a control.
10% ethanol, PBS, and milli- Q water were used as a positive control of cell death. […]

[5] = MTT cytotoxicity assay in A549 cells; format: cell-based; details: human, A549 cells (human lung carcinoma), 24 h post-treatment
Experimental: as §3, §4
Figu re S4. Cytotoxicity of ZAD -1 (A), ZA D-2 (B), ZA D-3 (C), and andro grapholide (D) to A549 (human lung carcinoma) cells. A549 cells were incubated with various concentrations of each compound for 24 hrs followed by MTT cell viability assay. The experiment was undertaken independently in 4 replicates.
DMSO at the same concentrations was used as a control. 10% ethanol, PBS, and milli- Q water were used as a positive control of cell death. The bars show mean ± SD. […]

SMILES | PGK1 expression relative to the vehicle [1] | Intensity Level, spot 4 Ran [2] | Intensity Level, spot 2 TKT [3] | CC50 at 24 h [4] [µM] | CC50 at 24 h [5] [µM] | PGK1 expression as compared to andrographolide treatment [1]
C=C1CC[C@@H]2[C@](C)(CO)[C@H](O)CC[C@@]2(C)[C@@H]1C/C=C1/C(=O)OC[C@H]1O [Andrographolide] | significantly upregulated | 698.483 | 1452.51 | 294 ± 96 | 211 ± 32 | –
C=C1CC[C@@H]2[C@]3(C)COC(C)(C)O[C@@H]3CC[C@@]2(C)[C@@H]1C/C=C1/C(=O)OC[C@@H]1Oc1c(Cl)cc(Cl)c2ccc(C)nc12 [ZAD-1] | – | 2096.79 | 523.514 | 149 ± 40 | 273 ± 22 | significantly increased expression

Reference: article PMC7662321, “Andrographolide and Its 14-Aryloxy Analogues Inhibit Zika and Dengue Virus Infection” (Molecules, 2020)
